Blank lines part the entries; values can stand above or below the compound they belong to.
Experiment: solvent given as SMILES

SMILES: N#CC(C#N)=Cc1cn(-c2ccccc2)nc1-c1ccccc1
absorption maximum (in C1CCOC1): 354 nm
absorption maximum (in C1COCCO1): 353 nm
absorption maximum (in CCO): 354 nm
absorption maximum (in CCOC(C)=O): 352 nm
absorption maximum (in CN(C)C=O): 355 nm
absorption maximum (in CO): 351 nm
absorption maximum (in CS(C)=O): 356 nm
absorption maximum (in Cc1ccccc1): 361 nm
absorption maximum (in ClC(Cl)Cl): 359 nm
absorption maximum (in ClCCl): 357 nm

SMILES: C(=C\c1cc[n+](Cc2ccccc2)cc1)/c1cc[n+](Cc2ccccc2)cc1
absorption maximum (in CC#N): 324 nm

SMILES: Cc1cc2cc(C)c3c4ccccc4[nH]c3c2o1
absorption maximum (in ClCCl): 302 nm

SMILES: Cn1c(=O)c(-c2ccccc2)nc2ccccc21
absorption maximum (in c1ccccc1): 369 nm

SMILES: C(#Cc1ccccc1)C(C#Cc1ccccc1)=Cc1c2ccccc2c(C=C(C#Cc2ccccc2)C#Cc2ccccc2)c2ccccc12
absorption maximum (in ClC(Cl)Cl): 432 nm

SMILES: COc1ccc(-c2oc3cccc4c5c(-c6ccc(OC)cc6)/c(=N/S(=O)(=O)C(F)(F)F)oc6cccc(c2c34)c65)cc1
absorption maximum (in ClC(Cl)Cl): 480 nm

SMILES: CCn1c2c(-c3ccc(-c4cccs4)s3)cc(C(C)(C)C)cc2c2cc(C(C)(C)C)cc(-c3ccc(-c4cccs4)s3)c21
absorption maximum (in ClCCl): 360 nm

SMILES: C1=Cc2ccccc2C(=Cc2ccc(C=C3c4ccccc4-c4ccccc43)cc2)c2ccccc21
absorption maximum (in C1CCOC1): 360 nm

SMILES: Cc1cc(C)c(C2=C3C=C(c4ccc(C(C)(C)C)cc4)C(c4ccc(C(C)(C)C)cc4)=[N+]3[B-](F)(F)n3c2cc(-c2ccc(C(C)(C)C)cc2)c3-c2ccc(C(C)(C)C)cc2)c(C)c1
absorption maximum (in C1CCCCC1): 602 nm
absorption maximum (in C1CCOC1): 602 nm
absorption maximum (in CC#N): 592 nm
absorption maximum (in Cc1ccccc1): 606 nm
absorption maximum (in ClCCl): 599 nm

SMILES: N#Cc1c2oc3ccccc3oc2c(C#N)c2oc3ccccc3oc12
absorption maximum (in ClC(Cl)Cl): 430 nm

SMILES: COc1ccc(-c2nc(/C(C#N)=C/c3ccc(Cl)cc3)sc2-c2ccc(OC)cc2)cc1
absorption maximum (in CC#N): 394 nm

SMILES: CC(C)[Si](C#Cc1cc2c(=S)c3cc(C#C[Si](C(C)C)(C(C)C)C(C)C)cc4c(=S)c5cc(C#C[Si](C(C)C)(C(C)C)C(C)C)cc6c(=S)c(c1)c2n(c34)c65)(C(C)C)C(C)C
absorption maximum (in ClCCl): 577 nm

SMILES: O=C(c1ccncc1)c1ccc(-n2c3ccccc3c3cc(-n4c5ccccc5c5ccccc54)ccc32)cc1
absorption maximum (in C1CCOC1): 342.64 nm
absorption maximum (in CCCCCC): 342.64 nm
absorption maximum (in Cc1ccccc1): 362 nm
absorption maximum (in ClCCl): 342.64 nm

SMILES: CCOC(=O)COc1ccc(C(c2c(C)[nH]c3ccccc23)c2c(C)[nH]c3ccccc23)cc1OC
absorption maximum (in CC#N): 290 nm
absorption maximum (in CO): 291 nm
absorption maximum (in O): 290 nm

SMILES: CCC1=C(C)C2=Cc3cccn3[B-](F)(F)[N+]2=C1C
absorption maximum (in C1CCCCC1): 512.5 nm
absorption maximum (in CC(C)=O): 503.5 nm
absorption maximum (in CCO): 505.5 nm
absorption maximum (in CCOC(C)=O): 505 nm
absorption maximum (in CO): 504.5 nm
absorption maximum (in OCC(F)(F)F): 494.5 nm

SMILES: CC1(C)c2ccccc2-c2sc3ccccc3c21
absorption maximum (in ClCCl): 330 nm

SMILES: CCCCCN(c1ccccc1)c1ccc2c(c1)C(CC)(CC)c1cc(/C=C/c3ccc(/C=C(\C#N)C(=O)O)s3)ccc1-2
absorption maximum (in C1CCOC1): 456 nm
absorption maximum (in C1COCCO1): 464 nm
absorption maximum (in CC#N): 430 nm
absorption maximum (in CC(C)=O): 464 nm
absorption maximum (in CCOC(C)=O): 460 nm
absorption maximum (in CN(C)C=O): 418 nm
absorption maximum (in CS(C)=O): 430 nm
absorption maximum (in ClCCl): 470 nm

SMILES: CCCCCC#Cc1cc(C#CCCCCC)c2ccc3c(C(=O)c4ccccc4)cc(C#CCCCCC)c4ccc1c2c43
absorption maximum (in ClCCl): 416 nm

SMILES: Cc1cc(C)c(C2=C3C=CC=[N+]3[B-]3(c4ccc5ccc6cccc7ccc4c5c67)Oc4cc(O)cc5c6ccc(C)cc6c6cc2n3c6c45)c(C)c1 (stereo not drawn)
absorption maximum (in ClC(Cl)Cl): 647 nm

SMILES: Cc1ccc(C2=Nc3cccc4[n+]3[B-](c3ccccc3)(N2)NC(c2ccc(C)cc2)=N4)cc1
absorption maximum (in ClCCl): 435 nm

SMILES: CCOC(CN1C(=O)C2=C(c3ccsc3)N(CC(OCC)OCC)C(=O)C2=C1c1ccsc1)OCC
absorption maximum (in ClC(Cl)Cl): 493 nm

SMILES: CN(C)c1ccc(-c2nc3cccnc3[nH]2)cc1
absorption maximum (in C1CCCCC1): 351 nm
absorption maximum (in CC#N): 346 nm

SMILES: CCCCN(CCCC)c1ccc2c(c1)C#CC#Cc1cc(C(F)(F)F)ccc1C#Cc1cc(c3cc1C#Cc1ccc(C(F)(F)F)cc1C#CC#Cc1cc(N(CCCC)CCCC)ccc1C#C3)C#C2
absorption maximum (in ClCCl): 474 nm

SMILES: Cc1ccc2c(c1)C1(c3ccccc3-c3ccccc31)c1cc(C)ccc1N2c1ccc2c(c1)Oc1ccccc1P2(=O)c1ccccc1 (stereo not drawn)
absorption maximum (in Cc1ccccc1): 311.25 nm

SMILES: CN(C)c1ccc(C2=Nc3sc4ccccc4[n+]3[B-](F)(F)O2)cc1
absorption maximum (in C1CCOC1): 424 nm
absorption maximum (in CC#N): 421 nm
absorption maximum (in CC(C)=O): 425 nm
absorption maximum (in Cc1ccccc1): 421 nm
absorption maximum (in ClCCl): 425 nm

SMILES: Oc1ccccc1/C=N/c1cc2nc3ccccc3nc2cc1/N=C/c1ccccc1O
absorption maximum (in CC#N): 403 nm

SMILES: CCN(CC)c1ccc(/C=C2\CC/C(=C\c3ccc(N(c4ccccc4)c4ccc(/C=C5\CC/C(=C\c6ccc(N(CC)CC)cc6)C5=C(C#N)C#N)cc4)cc3)C2=C(C#N)C#N)cc1
absorption maximum (in CN(C)C=O): 592 nm

SMILES: COc1ccc2c(-c3nc(-c4ccccc4Cl)no3)cc(=O)oc2c1
absorption maximum (in CCO): 354 nm
absorption maximum (in ClC(Cl)Cl): 355 nm

SMILES: O=C1C=CC2=Cc3ccccc3B(O)N12
absorption maximum (in CC#N): 360 nm
absorption maximum (in CO): 364 nm
absorption maximum (in CS(C)=O): 364 nm
absorption maximum (in ClC(Cl)Cl): 365 nm

SMILES: CCN(CC)c1ccc2n1[B-](F)(F)[N+]1=CC(/C=C/C(=O)OC(C)(C)C)=CC1=C2c1c(C)cc(C)cc1C
absorption maximum (in ClCCl): 478 nm

SMILES: Cc1cccc(NC(=O)c2ccc(N(C)C)cc2)c1
absorption maximum (in C1CCCCC1): 306 nm
absorption maximum (in C1CCOC1): 311 nm
absorption maximum (in CC#N): 314 nm
absorption maximum (in CCOCC): 306 nm

SMILES: CCCC1(CCC)c2ccccc2-c2ccc(-c3ccc4c(c3)C(CCC)(CCC)c3cc(-c5ccc6c(c5)C(CCC)(CCC)c5cc(-c7ccc8c(c7)C(CCC)(CCC)c7ccccc7-8)ccc5-6)ccc3-4)cc21
absorption maximum (in C1CCCCC1): 360 nm

SMILES: Fc1ccc2c(c1)sc1nc(-c3ccccc3)sc12
absorption maximum (in CS(C)=O): 330 nm

SMILES: COc1cc2c(cc1-c1ccsc1)Cc1c3c(c4c(c1-2)-c1cc(OC)c(-c2ccsc2)cc1C4)C(=O)N(CCC(C)C)C3=O
absorption maximum (in C1CCOC1): 417 nm

SMILES: COc1ccc(C2=Cc3ccccc3P2(=O)c2ccccc2)cc1 (stereo not drawn)
absorption maximum (in C1CCOC1): 362 nm
absorption maximum (in ClCCl): 365 nm

SMILES: CC1(C)C2=[N+](CCCCCC(=O)NCCNC(=O)CCCCCN3/C(=C/C=C/C=C/C=C/2)C(C)(C)c2cc(S(=O)(=O)[O-])ccc23)c2ccc(S(=O)(=O)[O-])cc21
absorption maximum (in CO): 755 nm
absorption maximum (in O): 750 nm

SMILES: F[Si](c1ccccc1)(c1ccccc1)c1cccc2ccccc12
absorption maximum (in C1CCOC1): 286 nm

The remaining lines, values ahead:

absorption maximum (in c1ccccc1): 402 nm
SMILES: Nc1ccc2nc(-c3ccccc3)c(=O)oc2c1

absorption maximum (in C1CCOC1): 395 nm
SMILES: c1ccc2cc3c(cc2c1)oc1c2oc4cc5ccccc5cc4c2c2ccccc2c31

absorption maximum (in ClCCl): 640 nm
SMILES: CC1=[N+]2C(=Cc3c4c(cn3[B-]2(F)F)-c2nc-4c(-c3ccccc3)c3ccc([nH]3)c(-c3ccccc3)c3nc(c(-c4ccccc4)c4ccc([nH]4)c2-c2ccccc2)C=C3)C(C)C1 (stereo not drawn)

absorption maximum (in C1CCOC1): 387 nm
SMILES: c1ccc(-c2cc(-c3ccccc3)cc(-c3ccc4c(c3)C3(c5ccccc5-4)c4ccccc4-c4c3c3c5ccccc5c(-c5cc(-c6ccccc6)cc(-c6ccccc6)c5)cc3c3ccccc43)c2)cc1 (stereo not drawn)

absorption maximum (in ClCCl): 395 nm
SMILES: CC(C)(C)NC(=O)c1ccc(C(=O)NC(C)(C)C)c2c1c1c3ccc(Cl)cc3c3cc(Cl)ccc3c1c1c3ccc(Cl)cc3c3cc(Cl)ccc3c21

absorption maximum (in ClCCl): 435 nm
SMILES: c1ccc2c(c1)ccc1ccc3ccc4ccc5ccccc5c4c3c12

absorption maximum (in c1ccccc1): 360 nm
SMILES: CCOC(=O)CSc1nc2c(c(C#N)c1C#N)CCCCCC2

absorption maximum (in CO): 505 nm
absorption maximum (in ClC(Cl)Cl): 545 nm
SMILES: Cc1nc2c(ccc3c2sc(/C=C/c2ccc(N4CCN(C)CC4)cc2)[n+]3C)s1

absorption maximum (in CCCCCC): 644 nm
SMILES: CC(C)[Si](C#Cc1c2cc3ccccc3cc2c(C#C[Si](C(C)C)(C(C)C)C(C)C)c2nc3c(ccc4cc5ccccc5cc43)nc12)(C(C)C)C(C)C

absorption maximum (in CC#N): 444 nm
absorption maximum (in CCCCCC): 435 nm
absorption maximum (in CCO): 452 nm
absorption maximum (in CO): 452 nm
absorption maximum (in ClCCl): 449 nm
SMILES: CCCCCC(=O)c1c2c(c(C(=O)CCCCC)c3c1OC1(CCCC1)O3)OC1(CCCC1)O2

absorption maximum (in ClCCl): 385 nm
SMILES: COc1ccc(C#Cc2ccc3nc4ccc(C#Cc5ccc(OC)cc5)cn4c(=O)c3c2)cc1

absorption maximum (in ClC(Cl)Cl): 480 nm
SMILES: CC(C)c1cccc(C(C)C)c1-n1c(=O)c2cc3nc(-c4ccccc4)c4cc5c(=O)n(-c6c(C(C)C)cccc6C(C)C)c(=O)c6cc7c(-c8ccccc8)nc8cc(c1=O)c2c1c3c4c(c56)c7c81

absorption maximum (in ClC(Cl)Cl): 627 nm
SMILES: F[B-]1(F)n2cccc2C(c2ccccc2)=C2C=CC(c3cccc(OC4=[N+]5C(=C(c6ccccc6)c6cc(Br)c(-c7ccc[nH]7)n6[B-]5(F)F)C=C4Br)c3)=[N+]21

absorption maximum (in C1COCCO1): 413 nm
absorption maximum (in CC#N): 413 nm
absorption maximum (in CCCCCCC): 403 nm
absorption maximum (in CO): 419 nm
SMILES: C(/C=C/c1cc2c3c(c1)CCCN3CCC2)=C\c1ccncc1

absorption maximum (in ClC(Cl)Cl): 429 nm
SMILES: Cc1cccc(C2=Cc3ccc4ccccc4[n+]3[B-](F)(F)O2)c1

absorption maximum (in C1CCCCC1): 346 nm
SMILES: CCCC1(CCC)c2cc(-c3ccccc3)ccc2-c2ccc(-c3ccc4c(c3)C(CCC)(CCC)c3cc(-c5ccccc5)ccc3-4)cc21

absorption maximum (in ClCCl): 375 nm
SMILES: c1ccc(N(c2ccccc2)c2ccc(-c3ccc4c(c3)C3(c5ccccc5Sc5ccccc53)c3cc(-c5ccc(N(c6ccccc6)c6ccccc6)cc5)ccc3-4)cc2)cc1

absorption maximum (in CCCCCCC): 397 nm
SMILES: c1cc2c3c(cccc3c1)-c1c-2c2ccccc2c2ccccc12

absorption maximum (in C1CCOC1): 360 nm
SMILES: N#Cc1c(N2CCCCC2)cc(-c2ccccc2)c2c1-c1ccccc1C2

absorption maximum (in C1CCOC1): 381 nm
absorption maximum (in CC#N): 376 nm
absorption maximum (in CO): 375 nm
absorption maximum (in ClCCl): 382 nm
SMILES: C(=C\c1nc2ccccc2[nH]1)/c1ccc(-c2nc3c4cccnc4c4ncccc4c3[nH]2)cc1

absorption maximum (in ClC(Cl)Cl): 317 nm
SMILES: CCCCCCc1ccc(-n2c3c4cccc(OC)c4nc(-c4ccc(OC)cc4)c3c3c2c2c(-c4ccc(OC)cc4)nc4c(OC)cccc4c2n3-c2ccc(CCCCCC)cc2)cc1
